5 compounds from patent US20220211698A1, “ANTI MALARIAL COMPOUNDS” (INSTITUTO DE MEDICINA MOLECULAR, priority 2020, published 2022) can be followed below.

“Also recorded” adds a separate entry of the source.

The target of data set [1] is Microtubule-associated protein 1A/1B-light chain 3 (LC3), purified recombinant (UniProt Q9GZQ8). The experiment in a line: ITC, 100 µM LC3 titrated into 10 µM PfUIS3, 25 °C, one-site model. On the technique in general: Isothermal titration calorimetry measures the heat released or taken up as one component is titrated into another.
The next data set can be described thus: Solubility in DMSO. The class given is physicochemical.
Data set [2] deals with P. berghei. The experiment in a line: Reversal of C4 effect by autophagy inhibitor, P. berghei-infected Huh7 cells. The class given is cell-based. To be noted: 50 μM with 1 μM C4, added 2 h before infection, 24 h post-infection.
Data set [3] deals with PfUIS3@Pb. The experiment in a line: Reversal of C4 effect by autophagy inhibitor, PfUIS3@Pb-infected Huh7 cells. The class given is cell-based, P. berghei expressing P. falciparum UIS3. The conditions noted are these: 50 μM with 1 μM C4, added 2 h before infection, 24 h post-infection. As to the method:
C4 and Chloroquine were added to the cells 2 h before infection. The effect was analysed at 24 h post-infection using flow cytometry by quantifying the EEFs number in infected cells. Data represent means±SEM. Pooled data from 4 independent experiments are presented. Statistical significance was assessed using the unpaired two-tailed t-test. *** P<0.001, **** P<0.0001.
To perform the flow cytometry analysis, Huh7 cells were seeded on a 24 well plate (50,000 cells/well) in RPMI and DMEM media respectively. The next day, media was replaced with different compounds (10 μM)/C4 (various conc.)/1 μM C4/1 μM C4+50 μM Chloroquine containing media, as appropriate in different experiments. Cells were then infected with P. bergehi/PfUIS3@Pb parasites and analysed by flow cytometry at 2 h/24 h post infection. DMSO was used as control and Primaquine was used as the positive control. For flow cytometry, infected cells were trypsinized and resuspended in 300 μl of media. 50 μl of each sample were analysed on BD Accuri C6 as described in Hanson et al. Data were analysed using FlowJo software. […]

Data set [4] has as its system PfUIS3@Pb. The experiment in a line: Immunofluorescence microscopy of EEF number and size, PfUIS3@Pb-infected Huh7 cells. The class given is cell-based, P. berghei expressing P. falciparum UIS3. To be noted: 1 μM. As for the experimental part:
(§1) To assess C4 effect on EEF number and size, Huh7 cells were plated on glass coverslips (40,000/cover slip), treated with 1 μM C4 or 0.0001% DMSO (control) and after 2 h infected with P. berghei/PfUIS3@Pb sporozoites (40,000/cover slip). Huh7 cells (obtained from ATCC) were cultured under standard conditions in RPMI 1640 and DMEM medium (Gibco Invitrogen) respectively supplemented with 10% FCS, 1% glutamine, 1% non-essential amino acids (RPMI 1640), 1% penicillin/streptomycin, and 1% Hepes (RPMI 1640).
(§2) To characterize PfUIS3@Pb parasite line, Huh7 cells were seeded on cover slips as above and infected with WT (P. berghei ANKA (507cl1)/PfUIS3@Pb sporozoites (40,000/cover slip). After 24 h, cells were fixed in 4% paraformaldehyde (ChemCruz) for 15 min at room temperature (RT), permeabilized/blocked (PBS, 0.1% Triton X-100, 1% BSA) for 1 h at RT and incubated with primary antibodies (diluted in blocking solution) for overnight at 4° C. Cells were then washed with PBS, incubated with AlexaFluor-conjugated secondary antibodies (Jackson ImmunoResearch Laboratories) and Hoechst 33342 (Invitrogen) for 1 h at RT and washed again. The coverslips were mounted with Fluoromount (SouthernBiotech). […] GFP signal was detected using AlexaFluor 488 conjugated anti GFP (rabbit polyclonal, Invitrogen, A-21311, 1:500) antibody. […] All images were processed and analysed using ImageJ.

Data set [5] deals with P. berghei ANKA. The experiment in a line: Immunofluorescence microscopy of EEF number and size, P. berghei-infected Huh7 cells. To be noted: 1 μM. The class given is cell-based. As to the method:
as §1, §2

Data set [6] has as its system PfUIS3@Pb. The experiment in a line: PfUIS3@Pb infection of Huh7 cells (flow cytometry EEF count). The class given is cell-based, P. berghei expressing P. falciparum UIS3. The conditions noted are these: 24 h post-infection. The source says:
The following two Plasmodium parasite strains were used in the PHS: i) the rodent wild-type (WT) GFP expressing P. berghei ANKA parasite strain (259cl2, obtained from the Leiden Malaria Research Group); and ii) the parasite line, PfUIS3@Pb, created by inserting the gene encoding P. falciparum UIS3 with an added a 2 HA tag (UIS3-HA) into the P. berghei parasite (507cl1, obtained from the Leiden Malaria Research Group) at the UIS3 locus under the control of native 5′ and 3′ regulatory sequences. More particularly, to replace the P. berghei UIS3 open reading frame (ORF) with UIS3 ORF of P. falciparum, a double crossover recombination was performed as described in FIG. 2A. Transfection was carried out by electroporation of purified schizonts as previously described. […]
The PHS was performed using Huh7 cells infected with sporozoites from either parasite lines with or without adding each of the compounds, at a concentration of 10 μM, 2 h before sporozoite addition. Infection level was determined either by measuring luminescent levels of the GFP and firefly luciferase-expressing P. berghei ANKA (676m1cl1), (obtained from the Leiden Malaria Research Group) or the number of GFP-positive infected cells by flow cytometry, representing Plasmodium exo-erythrocytic form, EEF, (as PfUIS3@Pb parasite line express GFP). […]
(In general: A flow cytometer gives signals particle by particle.)

Data set [7] relates to P. berghei. The experiment in a line: Sporozoite invasion of Huh7 cells, EEFs at 2 h post-infection by flow cytometry. The class given is cell-based. The conditions noted are these: 1 μM, added 2 h before infection. As to the method: FIG. 5E is a bar graph showing the effect of 1 μM C4 on P. berghei numbers in Huh7 cells as quantified by number of EEFs at 2 h post-infection. C4 was added to the cells 2 h before infection. EEFs were quantitated using flow cytometry. Data represent means±SEM (n=3). Non-parametric two-tailed Mann-Whitney test was used to compare the effect of DMSO control and C4. ns: non-significant.
(§3) To perform the flow cytometry analysis, Huh7 cells were seeded on a 24 well plate (50,000 cells/well) in RPMI and DMEM media respectively. The next day, media was replaced with different compounds (10 μM)/C4 (various conc.)/1 μM C4/1 μM C4+50 μM Chloroquine containing media, as appropriate in different experiments. Cells were then infected with P. bergehi/PfUIS3@Pb parasites and analysed by flow cytometry at 2 h/24 h post infection. DMSO was used as control and Primaquine was used as the positive control. For flow cytometry, infected cells were trypsinized and resuspended in 300 μl of media. 50 μl of each sample were analysed on BD Accuri C6 as described in Hanson et al. Data were analysed using FlowJo software.

Another data set concerns HeLa cells. The experiment in a line: Starvation-induced autophagy in HeLa cells, p62 immunoblot. The class given is cell-based. To be noted: 1 μM for 24 h, then EBBS amino-acid starvation 7 h. As for the experimental part: FIG. 8B is a bar graph showing the p62 levels before and after amino acid starvation were calculated as the ratio of p62 to y tubulin (loading control). Data represent means±SEM (n=2). Statistical significance was assessed using the unpaired two-tailed t-test. ns: non-significant.
As C4 acts on a protein-protein interaction at the host-parasite interface, the effect of C4 administration on host cell normal autophagy activity was determined. To that end, autophagy was induced in HeLa cells in the presence and absence of C4.
To perform the foregoing study, HeLa cells (ATCC), which had been maintained under standard culture conditions in DMEM medium supplemented with 10% FCS, 1% glutamine, 1% penicillin/streptomycin, were treated with 1 μM C4 or 0.0001% DMSO (control) for 24 h, and then changed from normal growth medium to EBBS to induce amino-acid starvation dependent autophagy. After 7 h, cells were collected in lysis buffer (50 mM NaCl, 50 mM Tris-Cl pH 8, 5 mM EDTA pH 8, 1% Triton X-100, protease inhibitor) and analysed by western blot using the following antibodies: p62 (rabbit polyclonal, Sigma-Aldrich, P0067, 1:1000) and gamma-tubulin (mouse monoclonal, Sigma-Aldrich, T5326, 1: 10,000). p62 levels were measured by quantifying the ratio of p62 to tubulin signals using Image Lab.

The test system of data set [8] is P. berghei ANKA. The experiment in a line: P. berghei infection of Huh7 cells (luciferase parasite load / flow cytometry EEF count). The class given is cell-based. As for the experimental part:
The PHS was performed using Huh7 cells infected with sporozoites from either parasite lines with or without adding each of the compounds, at a concentration of 10 μM, 2 h before sporozoite addition. Infection level was determined either by measuring luminescent levels of the GFP and firefly luciferase-expressing P. berghei ANKA (676m1cl1), (obtained from the Leiden Malaria Research Group) or the number of GFP-positive infected cells by flow cytometry, representing Plasmodium exo-erythrocytic form, EEF, (as PfUIS3@Pb parasite line express GFP).
as §3
The IC50 for C4 in P. berghei ANKA-infected and PfUIS3@Pb-infected cells at 24 h. Post-infection was 93.3 nM and 188.2 nM, respectively. To analyze C4 dose-dependent effect, media were replaced with DMSO (0.0001%)/C4 (various conc.)-containing media. After 2 h, cells were infected with luciferase-expressing P. berghei sporozoites (10,000/well) and processed for Luciferase assay at 24 h post-infection. Flow cytometry was used to determine EEF counts.

In another data set the target is UIS3-LC3 complex (Plasmodium falciparum, UniProt Q8IEU1). The experiment in a line: Isothermal calorimetry (ITC), C4 titrated into saturated solution of UIS3 with LC3. The class given is binding, P. falciparum.
The test system of data set [9] is P. berghei. The experiment in a line: P. berghei infection in Atg5+/+ and Atg5-/- mouse embryonic fibroblasts. To be noted: 10 μM. The class given is cell-based. As to the method: Data represent means±SEM (n=3). Statistical significance was assessed using the unpaired two-tailed t-test. ns: non-significant, **** P<0.0001.
To test the hypothesis that high-affinity binding of C4 to the UIS3-LC3 complex could interfere with the function of the UIS3-LC3 complex to cause a decrease Plasmodium infection by interfering with the parasite's ability to evade host cell autophagy, genetic and chemicals tools were used to assess the anti-parasitic activity of C4 in autophagy-competent and autophagy-deficient cells.
MEFs used in these studies were obtained from the Riken BioResource Research Center (Atg5^+/+ (RCB2710) and Atg5^−/− (RCB2711). (Kuma et al.) MEFs were cultured in DMEM supplemented as described above for Huh7 cells. MEFs were validated through quantitative reverse transcription PCR.

Procedure for UIS3-LC3 complex: ITC experiments were performed using MicroCal-ITC 200 (GE healthcare) at 25° C. The data were analyzed using MicroCal ITC-origin analysis software based on one-site binding reaction. For direct interaction studies, a 10 μM concentration of pfUIS3 was titrated against 0.100 μM of LC3. For competition assay, a saturated solution of UIS3 with LC3 was titrated against 100 μM of C4. C4 was resuspended in the same final buffer (with 2% DMSO) in which UIS3 and LC3 was dissolved.

By Kd is commonly meant the equilibrium constant for the complex coming apart. As to “Plasmodium falciparum Upregulated in infective sporozoites 3 (UIS3), purified recombinant myc-UIS3”, the Kd in data set [1] is 2.15 µM.
`Cc1ccc(C)c(NC(=O)N2CCN(c3ccc(-c4noc(C5CCCCC5)n4)cc3)CC2)c1` [Compound C9]: the “Solubility in DMSO” value in the data set “Solubility in DMSO” is recorded as “insolubilities in DMSO”.
Consider `CCN(CC)CCCC(C)Nc1ccnc2cc(Cl)ccc12` (stereo not shown) [Chloroquine], for which the “Reversal of anti-parasitic effect of C4 (EEF number)” value in the data set with P. berghei [2] was “can be reverted”; in the data set with P. berghei [2] (listed as chloroquine), “rescued the C4 effect”; in the data set on PfUIS3@Pb [3] it was “can be reverted”; in the data set on PfUIS3@Pb [3] (listed as chloroquine), “rescued the C4 effect”.
Turning to `Cc1c/c(=N\C(=O)N2CCC3(CC2)OCCO3)nc2c3ccccc3oc(O)c1-2` [Compound C8], the “Solubility in DMSO” value in “Solubility in DMSO” is on record as “insolubilities in DMSO”.
In general, IC50 refers to the concentration at which inhibition is half-maximal. In the case of `N#Cc1ccc(C(=O)N2CCN(Cc3ccc(-c4noc(-c5cccc(C(F)(F)F)c5)n4)cc3)CC2)cc1` [Compound C4], the “Parasite development, as measured by parasite area” value in the data set on PfUIS3@Pb [4] and with P. berghei ANKA [5] was “modest impact” in each case. The “Number of infected cells (microscopy)” value with PfUIS3@Pb [4] (added 2 h before infection) and in the data set on P. berghei ANKA [5] (added 2 h before infection) was “significant decrease” in each case. In the data set with PfUIS3@Pb [6] (10 μM, added 2 h before infection, Huh7 cells), the “Number of EEFs / decrease in infection in phenotypic screen” value is “most effective compound; also recorded: highest decrease in infection”. Also, the IC50 was 0.188 µM in the data set on PfUIS3@Pb [6] (PfUIS3@Pb-infected Huh7 cells, flow cytometry) and 0.0933 µM with P. berghei ANKA [8] (Plasmodium berghei, Huh-7, P. berghei ANKA-infected Huh7 cells, 24 h post-infection, luciferase assay). In the data set on P. berghei [7], the “Effect on sporozoite invasion of host cells” value is listed as “did not affect”. In addition, in the data set with HeLa cells, the “Host cell response to exogenous autophagy stimulus (p62 levels)” value was “does not cause any impairment”. The “Effect on infection over time” value in the data set with P. berghei ANKA [8] (1 μM, from very early time-point, maintained through at least 48 h post-infection) was “decreased infection”. The “Parasite load / decrease in infection in phenotypic screen” value in the data set on P. berghei ANKA [8] (10 μM, added 2 h before infection, 24 h post-infection, Huh7 cells) is “most effective compound; also recorded: highest decrease in infection”. Moreover, the “Affinity to UIS3-LC3 complex relative to direct UIS3-LC3 interaction” value on UIS3-LC3 complex is 10 fold. The compound also registered a Kd at UIS3-LC3 complex (25° C., one-site binding model, 100 μM C4 into UIS3 saturated with LC3) of 0.241 ± 0.0011 µM. The “Reduction in infection in Atg5−/− MEFs” value in the data set with P. berghei [9] (autophagy-deficient cells) is given as “did not cause any reduction in infection”. Moreover, the “Impact on infection in Atg5+/+ MEFs” value with P. berghei [9] (control cells) is “comparable to that observed for infected Huh7 cells”.
